Measured values reported in US10081635B2, “Substituted N-(pyrrolidine-3-yl)-7H-pyrrolo[2,3-D]pyrimidine-4-amine as janus kinase inhibitor” (YANG JI CHEMICAL CO., LTD., priority 2014, dated 2018).

Tests used:
Format in all cases: biochemical
Human JAK1 = Human JAK1 (Homo sapiens (Human), UniProt P23458); assay: In vitro kinase inhibition test, JAK1 (33P-ATP filter scintillation); conditions: compound at 1 uM; read-out: JAK1 kinase-phosphorylation inhibitory level (% inhibition)
Method: (§1) 1. In Vitro Kinase Inhibition Test
(§2) Kinases used were human-derived JAK1, JAK2, JAK3, and TYK2 (Millipore, Germany). Each of these kinases was diluted with a suitable buffer solution as described below, and then mixed with reagents.
Tris(hydroxymethyl)aminomethane (TRIS) and ethylenediaminetetraacetic acid (EDTA) were dissolved in distilled water at a concentration of 20 mM and 0.2 mM, respectively, and 100 uL of β-mercaptoethanol, 10 uL of Brij-35™, and 5 mL of glycerol, each per 100 mL of the solution, were added to the solution, thereby preparing a JAK1 dilution buffer solution.
(§3) Each compound was dissolved in a 100% DMSO solution at a 50 uM concentration. This solution was reacted with reagents in wells on a 96-well plate to reach a final concentration of 1 uM. Detailed experimental methods for each kinase are described below.
After reaction for about 40 minutes at room temperature, the reaction was stopped by adding 5 uL of a 3% (v/v) phosphoric acid solution. […] The methanol drying is a drying process using an azeotropic effect, wherein methanol is added into an aqueous solution for drying.
(§4) In Tables 5 and 6, the numbers in the “Example” column, which are identification numbers of the examples, indicate the compounds synthesized in the corresponding examples, the values in the “JAK1”, “JAK2”, “JAK3”, and “TYK2” columns represent kinase-phosphorylation inhibitory levels as a percentage (%) of the compounds synthesized in the corresponding examples at a 1 uM concentration. In Tables 5 and 6, negative values substantially indicate no inhibitory effect.
(§5) The inhibitory levels (% inhibition) represent a percentage of reduction in phosphorylation activity in each test group with respect to the phosphorylation activity of a corresponding kinase in a negative control group lacking any of the compounds synthesized in the examples. % inhibition=[(Scintillation value of Test compound non-treatment group−Scintillation value of Test compound treatment group)/(Scintillation value of Test compound non-treatment group)]×100

Human JAK2 = Human JAK2 (Homo sapiens (Human), UniProt O60674); assay: In vitro kinase inhibition test, JAK2 (33P-ATP filter scintillation); conditions: compound at 1 uM; read-out: JAK2 kinase-phosphorylation inhibitory level (% inhibition)
Method: as §1, §2
(§6) 3-morpholinopropane-1-sulfonic acid (MOPS) and EDTA were dissolved in distilled water at a concentration of 20 mM and 1 mM, respectively, and 100 uL of β-mercaptoethanol, 10 uL of Brij-35™, 5 mL of glycerol, and 100 mg of bovine serum albumin (BSA), each per 100 mL of the solution, were added to the solution, thereby preparing a JAK2, JAK3, and TYK2 dilution buffer solution.
as §3
(§7) After reaction for about 40 minutes at room temperature, the reaction was stopped by adding 5 uL of a 3% (v/v) phosphoric acid solution.
as §4, §5

Human JAK3 = Human JAK3 (Homo sapiens (Human), UniProt P52333); assay: In vitro kinase inhibition test, JAK3 (33P-ATP filter scintillation); conditions: compound at 1 uM; read-out: JAK3 kinase-phosphorylation inhibitory level (% inhibition)
Method: as §1, §2, §6, §3, §7, §4, §5

Human TYK2 = Human TYK2 (Homo sapiens (Human), UniProt P29597); assay: In vitro kinase inhibition test, TYK2 (33P-ATP filter scintillation); conditions: compound at 1 uM; read-out: TYK2 kinase-phosphorylation inhibitory level (% inhibition)
Method: as §1, §2, §6, §3, §7, §4, §5

Chain of Human TYK2 (P29597 whole entry): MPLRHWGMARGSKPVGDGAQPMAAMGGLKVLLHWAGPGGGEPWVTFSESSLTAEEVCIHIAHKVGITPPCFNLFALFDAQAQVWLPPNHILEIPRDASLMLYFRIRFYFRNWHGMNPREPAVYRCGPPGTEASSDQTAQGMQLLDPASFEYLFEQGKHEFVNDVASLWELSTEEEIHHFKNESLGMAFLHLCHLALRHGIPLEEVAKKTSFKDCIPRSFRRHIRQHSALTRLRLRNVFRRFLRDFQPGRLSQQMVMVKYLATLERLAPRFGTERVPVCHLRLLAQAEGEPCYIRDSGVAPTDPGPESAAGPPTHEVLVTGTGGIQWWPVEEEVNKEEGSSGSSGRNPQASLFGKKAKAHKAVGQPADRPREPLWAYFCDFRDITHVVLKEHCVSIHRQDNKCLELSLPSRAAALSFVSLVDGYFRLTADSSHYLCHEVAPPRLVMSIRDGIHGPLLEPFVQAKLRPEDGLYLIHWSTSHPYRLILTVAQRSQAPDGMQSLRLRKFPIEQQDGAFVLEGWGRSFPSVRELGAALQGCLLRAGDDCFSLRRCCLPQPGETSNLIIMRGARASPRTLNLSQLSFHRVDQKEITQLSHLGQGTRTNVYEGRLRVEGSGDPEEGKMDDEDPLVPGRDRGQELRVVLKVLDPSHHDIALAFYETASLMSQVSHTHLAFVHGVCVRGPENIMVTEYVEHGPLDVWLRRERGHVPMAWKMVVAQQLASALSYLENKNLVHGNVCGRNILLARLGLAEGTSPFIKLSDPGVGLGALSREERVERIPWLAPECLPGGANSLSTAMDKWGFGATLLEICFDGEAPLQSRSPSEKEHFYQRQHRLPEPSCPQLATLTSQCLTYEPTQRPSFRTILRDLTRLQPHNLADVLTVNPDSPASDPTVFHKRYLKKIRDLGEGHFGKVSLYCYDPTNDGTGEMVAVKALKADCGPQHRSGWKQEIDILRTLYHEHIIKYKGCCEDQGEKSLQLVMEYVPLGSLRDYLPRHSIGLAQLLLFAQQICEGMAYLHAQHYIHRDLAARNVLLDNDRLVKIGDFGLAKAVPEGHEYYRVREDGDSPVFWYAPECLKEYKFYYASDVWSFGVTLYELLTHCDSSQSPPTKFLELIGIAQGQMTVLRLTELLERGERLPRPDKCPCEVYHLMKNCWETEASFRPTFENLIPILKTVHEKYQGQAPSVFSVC
Chain of Human JAK1 (P23458 whole entry): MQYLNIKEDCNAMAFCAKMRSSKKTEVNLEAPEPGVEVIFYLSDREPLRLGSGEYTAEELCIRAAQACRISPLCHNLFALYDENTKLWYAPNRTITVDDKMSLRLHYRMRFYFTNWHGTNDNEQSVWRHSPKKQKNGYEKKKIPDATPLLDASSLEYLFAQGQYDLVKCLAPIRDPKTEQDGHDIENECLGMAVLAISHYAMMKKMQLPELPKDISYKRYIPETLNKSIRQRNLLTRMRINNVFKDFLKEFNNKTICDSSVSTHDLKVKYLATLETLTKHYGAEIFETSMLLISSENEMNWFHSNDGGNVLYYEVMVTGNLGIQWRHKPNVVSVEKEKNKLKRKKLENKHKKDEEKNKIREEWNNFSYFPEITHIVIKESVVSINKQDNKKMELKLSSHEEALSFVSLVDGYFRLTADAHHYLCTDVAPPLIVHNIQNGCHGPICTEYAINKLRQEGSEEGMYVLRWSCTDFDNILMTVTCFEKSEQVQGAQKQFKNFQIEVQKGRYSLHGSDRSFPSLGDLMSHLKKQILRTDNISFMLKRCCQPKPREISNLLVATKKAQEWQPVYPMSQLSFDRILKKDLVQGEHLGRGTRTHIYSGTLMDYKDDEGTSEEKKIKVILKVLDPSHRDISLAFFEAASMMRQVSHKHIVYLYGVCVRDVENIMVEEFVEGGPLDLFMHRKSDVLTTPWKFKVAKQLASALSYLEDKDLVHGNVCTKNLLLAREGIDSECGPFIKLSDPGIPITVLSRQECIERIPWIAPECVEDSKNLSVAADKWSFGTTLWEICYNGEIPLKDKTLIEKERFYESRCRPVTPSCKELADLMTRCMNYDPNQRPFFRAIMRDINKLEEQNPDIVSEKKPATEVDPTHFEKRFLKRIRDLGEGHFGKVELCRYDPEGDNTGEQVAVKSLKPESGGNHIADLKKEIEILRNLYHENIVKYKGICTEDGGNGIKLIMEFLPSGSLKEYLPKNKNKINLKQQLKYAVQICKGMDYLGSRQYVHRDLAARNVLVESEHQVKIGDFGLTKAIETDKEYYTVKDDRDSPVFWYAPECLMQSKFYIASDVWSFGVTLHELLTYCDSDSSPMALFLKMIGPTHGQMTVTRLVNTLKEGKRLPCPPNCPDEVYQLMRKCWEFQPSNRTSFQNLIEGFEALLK
Chain of Human JAK2 (O60674 whole entry): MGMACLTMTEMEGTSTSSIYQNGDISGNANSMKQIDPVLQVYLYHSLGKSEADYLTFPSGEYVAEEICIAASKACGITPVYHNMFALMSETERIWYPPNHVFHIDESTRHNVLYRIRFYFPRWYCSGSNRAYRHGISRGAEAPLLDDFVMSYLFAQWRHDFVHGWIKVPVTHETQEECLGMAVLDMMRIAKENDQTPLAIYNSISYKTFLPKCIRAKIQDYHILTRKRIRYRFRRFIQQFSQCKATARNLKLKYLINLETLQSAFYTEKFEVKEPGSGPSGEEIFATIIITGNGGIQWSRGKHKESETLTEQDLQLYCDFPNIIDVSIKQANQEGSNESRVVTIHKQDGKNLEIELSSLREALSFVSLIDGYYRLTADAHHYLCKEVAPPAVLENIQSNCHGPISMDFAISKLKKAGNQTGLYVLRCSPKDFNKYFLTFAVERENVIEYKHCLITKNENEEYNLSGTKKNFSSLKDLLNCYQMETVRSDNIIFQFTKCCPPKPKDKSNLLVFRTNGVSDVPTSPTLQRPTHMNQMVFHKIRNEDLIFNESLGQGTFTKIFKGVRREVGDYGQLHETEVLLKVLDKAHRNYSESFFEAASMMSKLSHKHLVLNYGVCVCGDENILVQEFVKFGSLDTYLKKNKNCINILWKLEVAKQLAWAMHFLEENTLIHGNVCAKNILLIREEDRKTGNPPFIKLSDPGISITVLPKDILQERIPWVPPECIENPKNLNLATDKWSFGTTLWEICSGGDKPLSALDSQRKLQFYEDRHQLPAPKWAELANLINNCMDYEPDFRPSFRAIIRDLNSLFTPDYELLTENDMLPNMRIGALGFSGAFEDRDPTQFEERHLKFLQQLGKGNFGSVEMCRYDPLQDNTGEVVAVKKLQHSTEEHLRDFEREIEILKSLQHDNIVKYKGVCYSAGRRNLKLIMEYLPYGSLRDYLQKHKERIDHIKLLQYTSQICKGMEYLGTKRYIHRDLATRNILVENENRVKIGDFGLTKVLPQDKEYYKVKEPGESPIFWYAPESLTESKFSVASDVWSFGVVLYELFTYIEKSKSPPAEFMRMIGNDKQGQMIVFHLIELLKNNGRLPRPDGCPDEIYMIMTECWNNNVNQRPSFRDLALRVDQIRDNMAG
Chain of Human JAK3 (P52333 whole entry): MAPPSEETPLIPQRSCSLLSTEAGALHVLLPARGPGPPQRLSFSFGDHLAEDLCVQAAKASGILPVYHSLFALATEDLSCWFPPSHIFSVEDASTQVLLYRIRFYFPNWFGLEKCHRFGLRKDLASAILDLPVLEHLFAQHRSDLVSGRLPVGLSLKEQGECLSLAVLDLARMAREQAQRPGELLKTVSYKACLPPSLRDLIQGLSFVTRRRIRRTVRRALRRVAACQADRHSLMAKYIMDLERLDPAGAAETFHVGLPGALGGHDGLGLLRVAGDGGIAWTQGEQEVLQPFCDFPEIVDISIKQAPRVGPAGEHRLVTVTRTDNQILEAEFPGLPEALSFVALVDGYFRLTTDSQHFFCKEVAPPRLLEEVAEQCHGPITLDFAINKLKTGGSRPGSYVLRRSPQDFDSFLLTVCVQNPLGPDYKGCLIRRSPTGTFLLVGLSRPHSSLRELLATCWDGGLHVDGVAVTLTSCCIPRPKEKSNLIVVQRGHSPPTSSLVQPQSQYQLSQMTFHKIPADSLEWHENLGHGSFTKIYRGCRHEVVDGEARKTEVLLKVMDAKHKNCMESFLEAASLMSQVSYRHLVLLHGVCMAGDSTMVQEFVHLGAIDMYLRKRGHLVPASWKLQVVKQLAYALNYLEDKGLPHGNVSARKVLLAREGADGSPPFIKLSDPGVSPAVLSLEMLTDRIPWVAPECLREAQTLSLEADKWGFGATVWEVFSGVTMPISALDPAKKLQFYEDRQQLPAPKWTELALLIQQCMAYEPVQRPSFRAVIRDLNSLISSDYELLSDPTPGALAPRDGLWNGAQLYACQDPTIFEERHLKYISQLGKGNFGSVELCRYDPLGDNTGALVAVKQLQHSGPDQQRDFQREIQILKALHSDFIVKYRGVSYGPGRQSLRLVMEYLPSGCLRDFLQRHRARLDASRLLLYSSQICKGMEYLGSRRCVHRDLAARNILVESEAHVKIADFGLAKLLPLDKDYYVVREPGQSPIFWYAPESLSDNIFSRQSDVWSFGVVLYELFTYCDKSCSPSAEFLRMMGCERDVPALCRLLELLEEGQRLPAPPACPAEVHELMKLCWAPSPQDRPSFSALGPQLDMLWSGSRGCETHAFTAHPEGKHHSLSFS

| Structure (SMILES) | inhibition at 1 µM (Human JAK1) | inhibition at 1 µM (Human JAK2) | inhibition at 1 µM (Human JAK3) | inhibition at 1 µM (Human TYK2) |
| --- | --- | --- | --- | --- |
| CN(c1ncnc2[nH]ccc12)[C@H]1CN(S(=O)(=O)c2cccc([N+](=O)[O-])c2)CC12CC2 [Example 44, (R)-N-methyl-N-(5-((3-nitrophenyl)sulfonyl)-5-azaspiro[2.4]heptan-7-yl)-7H-pyrrolo[2,3-d]pyrimidin-4-amine] | 100% | 96% | 96% | 98% |
| CN(c1ncnc2[nH]ccc12)[C@H]1CN(S(=O)(=O)c2ccc([N+](=O)[O-])cc2)CC12CC2 [Example 45, (R)-N-methyl-N-(5-((4-nitrophenyl)sulfonyl)-5-azaspiro[2.4]heptan-7-yl)-7H-pyrrolo[2,3-d]pyrimidin-4-amine] | 100% | 84% | 60% | 88% |
| Cc1cccc(S(=O)(=O)N2C[C@H](N(C)c3ncnc4[nH]ccc34)C3(CC3)C2)c1 [Example 46, (R)-N-methyl-N-(5-(m-tolylsulfonyl)-5-azaspiro[2.4]heptan-7-yl)-7H-pyrrolo[2,3-d]pyrimidin-4-amine] | 98% | 81% | 62% | 92% |
| COc1ccc(S(=O)(=O)N2C[C@H](N(C)c3ncnc4[nH]ccc34)C3(CC3)C2)cc1 [Example 47, (R)-N-(5-((4-methoxyphenyl)sulfonyl)-5-azaspiro[2.4]heptan-7-yl)-N-methyl-7H-pyrrolo[2,3-d]pyrimidin-4-amine] | 99% | 69% | 39% | 71% |
| CN(c1ncnc2[nH]ccc12)[C@H]1CN(S(=O)(=O)c2ccc(C(F)(F)F)cc2)CC12CC2 [Example 48, (R)-N-methyl-N-(5-((4-(trifluoromethyl)phenyl)sulfonyl)-5-azaspiro[2.4]heptan-7-yl)-7H-pyrrolo[2,3-d]pyrimidin-4-amine] | 98% | 36% | 28% | 66% |
| CN(c1ncnc2[nH]ccc12)[C@H]1CN(S(=O)(=O)c2ccc3ccccc3c2)CC12CC2 [Example 49, (R)-N-methyl-N-(5-(naphthalen-2-ylsulfonyI)-5-azaspiro[2.4]heptan-7-yl)-7H-pyrrolo[2,3-d]pyrimidin-4-amine] | 98% | 65% | 55% | 75% |
| CN(c1ncnc2[nH]ccc12)[C@H]1CN(S(=O)(=O)N2CCCCC2)CC12CC2 [Example 50, (R)-N-methyl-N-(5-(piperidin-1-ylsulfonyl)-5-azaspiro[2.4]heptan-7-yl)-7H-pyrrolo[2,3-d]pyrimidin-4-amine] | 98% | 56% | 60% | 81% |
| CN(c1ncnc2[nH]ccc12)[C@H]1CN(S(=O)(=O)N2CCOCC2)CC12CC2 [Example 51, (R)-N-methyl-N-(5-(morpholinosulfonyl)-5-azaspiro[2.4]heptan-7-yl)-7H-pyrrolo[2,3-d]pyrimidin-4-amine] | 97% | 60% | 49% | 69% |
| CCC(=O)N1CC(N(C)c2ncnc3[nH]ccc23)C2(CC2)C1 (stereo not drawn) [Example 52, 1-(7-(methyl(7H-pyrrolo[2,3-d]pyrimidin-4-yl)amino)-5-azaspiro[2.4]heptan-5-yl)propan-1-one] | 58% | -22% | 17% | 20% |
| COCC(=O)N1CC(N(C)c2ncnc3[nH]ccc23)C2(CC2)C1 (stereo not drawn) [Example 53, 2-methoxy-1-(7-(methyl(7H-pyrrolo[2,3-d]pyrimidin-4-yl)amino)-5-azaspiro[2.4]heptan-5-yl)ethan-1-one] | 76% | -18% | 3% | 7% |
| CN(c1ncnc2[nH]ccc12)C1CN(C(=O)CN=[N+]=[N-])CC12CC2 (stereo not drawn) [Example 54, 2-azido-1-(7-(methyl(7H-pyrrolo[2,3-d]pyrimidin-4-yl)amino)-5-azaspiro[2.4]heptan-5-yl)ethan-1-one] | 94% | 60% | 73% | 72% |
| CC(=O)NCC(=O)N1CC(N(C)c2ncnc3[nH]ccc23)C2(CC2)C1 (stereo not drawn) [Example 56, N-(2-(7-(methyl(7H-pyrrolo[2,3-d]pyrimidin-4-yl)amino)-5-azaspiro[2.4]heptan-5-yl)-2-oxoethyl)acetamide] | 9% | -37% | 9% | -10% |
| CNC(=O)CC(=O)N1CC(N(C)c2ncnc3[nH]ccc23)C2(CC2)C1 (stereo not drawn) [Example 57, N-methyl-3-(7-(methyl(7H-pyrrolo[2,3-d]pyrimidin-4-yl)amino)-5-azaspiro[2.4]heptan-5-yl)-3-oxopropanamide] | 55% | 7% | -9% | 11% |

Second part, the molecule after the results:

| inhibition at 1 µM (Human JAK1) | inhibition at 1 µM (Human JAK2) | inhibition at 1 µM (Human JAK3) | inhibition at 1 µM (Human TYK2) | Structure (SMILES) |
| --- | --- | --- | --- | --- |
| 34% | 2% | -9% | -4% | CN(c1ncnc2[nH]ccc12)C1CN(C(=O)CCN)CC12CC2 (stereo not drawn) [Example 58, 3-amino-1-(7-(methyl(7H-pyrrolo[2,3-d]pyrimidin-4-yl)amino)-5-azaspiro[2.4]heptan-5-yl)propan-1-one] |
| 72% | -17% | 20% | -8% | CN(c1ncnc2[nH]ccc12)C1CN(C(=O)Cn2ccnc2)CC12CC2 (stereo not drawn) [Example 59, 2-(1H-imidazol-1-yl)-1-(7-(methyl(7H-pyrrolo[2,3-d]pyrimidin-4-yl)amino)-5-azaspiro[2.4]heptan-5-yl)ethan-1-one] |
| 96% | -3% | -14% | 0% | CN(c1ncnc2[nH]ccc12)C1CN(C(=S)CC#N)CC12CC2 (stereo not drawn) [Example 60, 3-(7-(methyl(7H-pyrrolo[2,3-d]pyrimidin-4-yl)amino)-5-azaspiro[2.4]heptan-5-yl)-3-thioxopropanenitrile] |
| 85% | -9% | 29% | 22% | CC(C)COC(=O)N1CC(N(C)c2ncnc3[nH]ccc23)C2(CC2)C1 (stereo not drawn) [Example 61, isobutyl 7-(methyl(7H-pyrrolo[2,3-d]pyrimidin-4-yl)amino)-5-azaspiro[2.4]heptane-5-carboxylate] |
| 91% | 43% | 7% | 29% | CN(c1ncnc2[nH]ccc12)C1CN(S(=O)(=O)CCN)CC12CC2 (stereo not drawn) [Example 63, N-(5-((2-aminoethyl)sulfonyl)-5-azaspiro[2.4]heptan-7-yl)-N-methyl-7H-pyrrolo[2,3-d]pyrimidin-4-amine] |
| 16% | -9% | -1% | 0% | CCC(=O)N1C[C@@H](N(C)c2ncnc3[nH]ccc23)C2(CC2)C1 [Example 64, (S)-1-(7-(methyl(7H-pyrrolo[2,3-d]pyrimidin-4-yl)amino)-5-azaspiro[2.4]heptan-5-yl)propan-1-one] |
| 41% | 12% | -16% | 14% | CN(c1ncnc2[nH]ccc12)[C@@H]1CN(C(=O)CN=[N+]=[N-])CC12CC2 [Example 65, (S)-2-azido-1-(7-(methyl(7H-pyrrolo[2,3-d]pyrimidin-4-yl)amino)-5-azaspiro[2.4]heptan-5-yl)ethan-1-one] |
| 5% | -7% | 0% | -4% | CNC(=O)CC(=O)N1C[C@@H](N(C)c2ncnc3[nH]ccc23)C2(CC2)C1 [Example 67, (S)-N-methyl-3-(7-(methyl(7H-pyrrolo[2,3-d]pyrimidin-4-yl)amino)-5-azaspiro[2.4]heptan-5-yl)-3-oxopropanamide] |
